Results from ChEMBL document CHEMBL1133461, “ElogPoct: a tool for lipophilicity determination in drug discovery” (J Med Chem, 2000).

What was measured:
[1] = Partition coefficient (logP) (HPLC); conditions: octanol/water
[2] = HPLC capacity factor (k); assay type: ADME
[3] = Partition coefficient (logP); conditions: octanol/water

Structure (SMILES): c1ccc2ccccc2c1
- logP [1]: 3.51
- Log k'w: 3.06

Structure (SMILES): Cc1cc(=O)n(-c2ccccc2)n1C [ANTIPYRINE]
- Log K'w [2]: 0.09

Structure (SMILES): CC/C(=C(/CC)c1ccc(O)cc1)c1ccc(O)cc1 [DIETHYLSTILBESTROL]
- logP [1]: 4.72
- Log k'w: 4.16

Structure (SMILES): CSc1ncnc2c1ncn2[C@@H]1O[C@H](CO)[C@@H](O)[C@H]1O
- logP [1]: 0.34
- Log k'w: 0.19

Structure (SMILES): Oc1ncnc2[nH]ncc12 [ALLOPURINOL]
- Log K'w [2]: -0.89
- logP [1]: -0.85

Structure (SMILES): Cc1ncc([N+](=O)[O-])n1CCO [METRONIDAZOLE]
- Log K'w [2]: -0.32
- logP [1]: -0.22

Structure (SMILES): O=C1CN=C(c2ccccn2)c2cc(Br)ccc2N1 [BROMAZEPAM]
- Log K'w [2]: 1.13
- logP [3]: 1.65
- logP [1]: 1.38

Structure (SMILES): CC(=O)CCCCn1c(=O)c2c(ncn2C)n(C)c1=O [PENTOXIFYLLINE]
- logP [3]: 0.29
- logP [1]: 0.31
- Log k'w: 0.16

Structure (SMILES): Oc1cccc(Cl)c1
- Log k'w: 2.49

Structure (SMILES): CC(=O)c1ccccc1 [ACETOPHENONE]
- Log k'w: 1.31

Structure (SMILES): COC1=CC(=O)C[C@@H](C)[C@]12Oc1c(Cl)c(OC)cc(OC)c1C2=O [GRISEOFULVIN]
- logP [1]: 2.57
- Log k'w: 2.21

Structure (SMILES): C[C@]12CC[C@@H]3c4ccc(O)cc4CC[C@H]3[C@@H]1CC[C@@H]2O [ESTRADIOL]
- logP [1]: 3.82
- Log k'w: 3.34

Structure (SMILES): c1ccc(-c2ccc(C(c3ccccc3)n3ccnc3)cc2)cc1 (stereo unspecified) [BIFONAZOLE]
- logP [1]: 4.95
- Log k'w: 4.37

Structure (SMILES): C[C@]12CCC(=O)C=C1CC[C@@H]1[C@@H]2[C@@H](O)C[C@@]2(C)[C@H]1CC[C@]2(O)C(=O)CO [HYDROCORTISONE]
- Log k'w: 1.43

Structure (SMILES): Cc1cccc(N(C)C(=S)Oc2ccc3ccccc3c2)c1 [TOLNAFTATE]
- logP [3]: 5.4
- logP [1]: 5.15
- Log k'w: 4.55

Structure (SMILES): C[C@]12C=CC(=O)C=C1CC[C@@H]1[C@@H]2[C@@H](O)C[C@@]2(C)[C@H]1CC[C@]2(O)C(=O)CO [PREDNISOLONE]
- logP [1]: 1.83
- Log k'w: 1.54

Structure (SMILES): c1ccc2ncccc2c1 [QUINOLINE]
- logP [1]: 1.85

Structure (SMILES): NC(=O)N/N=C/c1ccc([N+](=O)[O-])o1 [NITROFURAZONE]
- logP [1]: 0.24
- Log k'w: 0.1

Structure (SMILES): Brc1cnc2ccccc2c1
- logP [1]: 2.93
- Log k'w: 2.54

Structure (SMILES): NC(=O)N1c2ccccc2C=Cc2ccccc21 [CARBAMAZEPINE]
- Log K'w [2]: 1.7
- logP [3]: 2.19
- logP [1]: 2.01

Structure (SMILES): C[C@@H]1C[C@H]2[C@@H]3CCC4=CC(=O)C=C[C@]4(C)[C@@]3(F)[C@@H](O)C[C@]2(C)[C@@]1(O)C(=O)CO [DEXAMETHASONE]
- logP [1]: 2.37
- Log k'w: 2.03

Structure (SMILES): Cn1c(=O)c2c(ncn2C)n(C)c1=O [CAFFEINE]
- Log k'w: -0.31

Structure (SMILES): CN1C(=O)C(O)N=C(c2ccccc2Cl)c2cc(Cl)ccc21 (stereo unspecified) [LORMETAZEPAM]
- logP [3]: 2.72
- logP [1]: 2.78
- Log k'w: 2.4

Structure (SMILES): C[C@]12CC[C@H]3[C@@H](CCC4=CC(=O)CC[C@@]43C)[C@@H]1CC[C@@H]2O [TESTOSTERONE]
- Log k'w: 2.74

Structure (SMILES): CS(=O)(=O)c1ccc([C@@H](O)[C@@H](CO)NC(=O)C(Cl)Cl)cc1 [THIAMPHENICOL]
- logP [3]: -0.27
- logP [1]: -0.13
- Log k'w: -0.24

Structure (SMILES): Oc1cc(Cl)cc(Cl)c1
- logP [3]: 3.68
- logP [1]: 3.88
- Log k'w: 3.4

Structure (SMILES): C[C@]12C=CC(=O)C=C1CC[C@@H]1[C@@H]2C(=O)C[C@@]2(C)[C@H]1CC[C@]2(O)C(=O)CO [PREDNISONE]
- logP [1]: 1.47
- Log k'w: 1.21

Structure (SMILES): CC(=O)Nc1ccc(O)cc1 [ACETAMINOPHEN]
- Log K'w [2]: -0.02
- logP [3]: 0.51
- logP [1]: 0.11

Structure (SMILES): CC(=O)OCC(=O)[C@@]1(O)CC[C@H]2[C@@H]3CCC4=CC(=O)CC[C@]4(C)[C@H]3[C@@H](O)C[C@@]21C [HYDROCORTISONE ACETATE]
- logP [3]: 2.19
- logP [1]: 2.26
- Log k'w: 1.93

Structure (SMILES): O=C1Nc2ccc(Cl)cc2C(c2ccccc2Cl)=NC1O (stereo unspecified) [LORAZEPAM]
- Log K'w [2]: 2.36
- logP [1]: 2.74

Structure (SMILES): O=[N+]([O-])c1ccc(/C=N/O)o1 [NIFUROXIME]
- logP [3]: 1.28
- logP [1]: 1.36
- Log k'w: 1.11

Structure (SMILES): Clc1ccccc1C(c1ccccc1)(c1ccccc1)n1ccnc1 [CLOTRIMAZOLE]
- Log k'w: 4.13
